PubChem BioAssay AID1963980 (Molecular Pharmacology Branch, DTP, NCI, 2024)

Test system: 475296-252-R-J1-PDC spheroid viability
Test: Anticancer human tumor 475296-252-R-J1-PDC patient-derived rectal carcinoma cell line growth inhibition [PI3K]
Conditions: spheroids with HUVEC and MSC; for IC50: curve of first compound; for viability, T/C: stronger effect = lower value
How it was run: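 Viability of mixed-cell spheroids was determined after exposure to pairwise combinations, one partner being inavolisib, alpelisib, duvelisib or copanlisib. Highest tested concentration matched clinical Cmax where known and 10 microM where not, descending in half-log steps.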

[1] = second compound 0.00316 µM, first compound 0.0316 µM
[2] = second compound 0.00316 µM, first compound 0.1 µM
[3] = second compound 0.00316 µM, first compound 0.316 µM
[4] = second compound 0.00316 µM, first compound 1 µM
[5] = second compound 0.00316 µM, first compound 3.16 µM
[6] = second compound 0.00316 µM, first compound 10 µM
[7] = second compound 0.01 µM, first compound 0.0316 µM
[8] = second compound 0.01 µM, first compound 0.1 µM
[9] = second compound 0.01 µM, first compound 0.316 µM
[10] = second compound 0.01 µM, first compound 1 µM
[11] = second compound 0.01 µM, first compound 3.16 µM
[12] = second compound 0.01 µM, first compound 10 µM
[13] = second compound 0.0316 µM, first compound 0.0316 µM
[14] = second compound 0.0316 µM, first compound 0.1 µM
[15] = second compound 0.0316 µM, first compound 0.316 µM
[16] = second compound 0.0316 µM, first compound 1 µM
[17] = second compound 0.0316 µM, first compound 3.16 µM
[18] = second compound 0.0316 µM, first compound 10 µM
[19] = second compound 0.1 µM, first compound 0.0316 µM
[20] = second compound 0.1 µM, first compound 0.1 µM
[21] = second compound 0.1 µM, first compound 0.316 µM
[22] = second compound 0.1 µM, first compound 1 µM
[23] = second compound 0.1 µM, first compound 3.16 µM
[24] = second compound 0.1 µM, first compound 10 µM
[25] = second compound 0.316 µM, first compound 0.0316 µM
[26] = second compound 0.316 µM, first compound 0.1 µM
[27] = second compound 0.316 µM, first compound 0.316 µM
[28] = second compound 0.316 µM, first compound 1 µM
[29] = second compound 0.316 µM, first compound 3.16 µM
[30] = second compound 0.316 µM, first compound 10 µM
[31] = second compound 1 µM, first compound 0.0316 µM
[32] = second compound 1 µM, first compound 0.1 µM
[33] = second compound 1 µM, first compound 0.316 µM
[34] = second compound 1 µM, first compound 1 µM
[35] = second compound 1 µM, first compound 3.16 µM
[36] = second compound 1 µM, first compound 10 µM
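Also: spheroids exposed to agents for seven days before readout.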

SMILES: CC(C)NCC(C(=O)N1CCN(c2ncnc3c2C(C)CC3O)CC1)c1ccc(Cl)cc1 (stereo not drawn) + COc1c(OCCCN2CCOCC2)ccc2c3n(c(=NC(=O)c4cnc(N)nc4)nc12)CCN3
- IC50 (second compound 0.00316 µM): > 10 µM
- IC50 (second compound 0.01 µM): > 10 µM
- IC50 (second compound 0.0316 µM): > 10 µM
- IC50 (second compound 0.1 µM): > 10 µM
- IC50 (second compound 0.316 µM): > 10 µM
- IC50 (second compound 1 µM): 6.18 µM
- viability, T/C [1]: 98.5%
- viability, T/C [2]: 94.5%
- viability, T/C [3]: 94.1%
- viability, T/C [4]: 92.2%
- viability, T/C [5]: 67.2%
- viability, T/C [6]: 55.1%
- viability, T/C [7]: 106%
- viability, T/C [8]: 99%
- viability, T/C [9]: 96.5%
- viability, T/C [10]: 84.7%
- viability, T/C [11]: 65.6%
- viability, T/C [12]: 60%
- viability, T/C [13]: 108%
- viability, T/C [14]: 102%
- viability, T/C [15]: 87.2%
- viability, T/C [16]: 79.5%
- viability, T/C [17]: 77%
- viability, T/C [18]: 78.2%
- viability, T/C [19]: 92.8%
- viability, T/C [20]: 77.9%
- viability, T/C [21]: 87.6%
- viability, T/C [22]: 72.1%
- viability, T/C [23]: 75.2%
- viability, T/C [24]: 62%
- viability, T/C [25]: 68.6%
- viability, T/C [26]: 75%
- viability, T/C [27]: 70.2%
- viability, T/C [28]: 71.4%
- viability, T/C [29]: 62.7%
- viability, T/C [30]: 59.7%
- viability, T/C [31]: 60.4%
- viability, T/C [32]: 56%
- viability, T/C [33]: 67%
- viability, T/C [34]: 63.5%
- viability, T/C [35]: 55.8%
- viability, T/C [36]: 38.2%

SMILES: CCN1CCN(Cc2ccc(Nc3ncc(F)c(-c4cc(F)c5nc(C)n(C(C)C)c5c4)n3)nc2)CC1 + COc1c(OCCCN2CCOCC2)ccc2c3n(c(=NC(=O)c4cnc(N)nc4)nc12)CCN3
- IC50 (second compound 0.00316 µM): > 1 µM
- IC50 (second compound 0.01 µM): > 1 µM
- IC50 (second compound 0.0316 µM): > 1 µM
- IC50 (second compound 0.1 µM): > 1 µM
- IC50 (second compound 0.316 µM): > 1 µM
- IC50 (second compound 1 µM): > 1 µM
- viability, T/C (second compound 0.00316 µM, first compound 0.00316 µM): 99.3%
- viability, T/C (second compound 0.00316 µM, first compound 0.01 µM): 102%
- viability, T/C [1]: 97.5%
- viability, T/C [2]: 104%
- viability, T/C [3]: 100%
- viability, T/C [4]: 90.6%
- viability, T/C (second compound 0.01 µM, first compound 0.00316 µM): 95.6%
- viability, T/C (second compound 0.01 µM, first compound 0.01 µM): 95%
- viability, T/C [7]: 93.1%
- viability, T/C [8]: 95.2%
- viability, T/C [9]: 104%
- viability, T/C [10]: 76.4%
- viability, T/C (second compound 0.0316 µM, first compound 0.00316 µM): 83.8%
- viability, T/C (second compound 0.0316 µM, first compound 0.01 µM): 92.5%
- viability, T/C [13]: 99.2%
- viability, T/C [14]: 95.1%
- viability, T/C [15]: 86.9%
- viability, T/C [16]: 64.4%
- viability, T/C (second compound 0.1 µM, first compound 0.00316 µM): 86.3%
- viability, T/C (second compound 0.1 µM, first compound 0.01 µM): 94.4%
- viability, T/C [19]: 84.8%
- viability, T/C [20]: 87.2%
- viability, T/C [21]: 85.9%
- viability, T/C [22]: 63.8%
- viability, T/C (second compound 0.316 µM, first compound 0.00316 µM): 74.3%
- viability, T/C (second compound 0.316 µM, first compound 0.01 µM): 78.4%
- viability, T/C [25]: 72.5%
- viability, T/C [26]: 65.3%
- viability, T/C [27]: 63%
- viability, T/C [28]: 50%
- viability, T/C (second compound 1 µM, first compound 0.00316 µM): 62.8%
- viability, T/C (second compound 1 µM, first compound 0.01 µM): 58.2%
- viability, T/C [31]: 63.6%
- viability, T/C [32]: 55.8%
- viability, T/C [33]: 56%
- viability, T/C [34]: 55.2%

SMILES: Cn1ncc(Cl)c1-c1cc(C(=O)NC(CN)Cc2cccc(F)c2)sc1Cl (stereo not drawn) + COc1c(OCCCN2CCOCC2)ccc2c3n(c(=NC(=O)c4cnc(N)nc4)nc12)CCN3
- IC50 (second compound 0.00316 µM): > 10 µM
- IC50 (second compound 0.01 µM): > 10 µM
- IC50 (second compound 0.0316 µM): 2.09 µM
- IC50 (second compound 0.1 µM): 2.92 µM
- IC50 (second compound 0.316 µM): 1.36 µM
- IC50 (second compound 1 µM): 0.888 µM
- viability, T/C [1]: 86.5%
- viability, T/C [2]: 70.6%
- viability, T/C [3]: 80.1%
- viability, T/C [4]: 67.9%
- viability, T/C [5]: 66.1%
- viability, T/C [6]: 55.7%
- viability, T/C [7]: 93.4%
- viability, T/C [8]: 91.5%
- viability, T/C [9]: 62.1%
- viability, T/C [10]: 58.5%
- viability, T/C [11]: 59.4%
- viability, T/C [12]: 59.2%
- viability, T/C [13]: 82.9%
- viability, T/C [14]: 89.4%
- viability, T/C [15]: 90.4%
- viability, T/C [16]: 59%
- viability, T/C [17]: 53%
- viability, T/C [18]: 36.9%
- viability, T/C [19]: 80%
- viability, T/C [20]: 79.4%
- viability, T/C [21]: 72.6%
- viability, T/C [22]: 56.4%
- viability, T/C [23]: 54.3%
- viability, T/C [24]: 27.1%
- viability, T/C [25]: 69.2%
- viability, T/C [26]: 69.4%
- viability, T/C [27]: 62.1%
- viability, T/C [28]: 54%
- viability, T/C [29]: 39.5%
- viability, T/C [30]: 22.5%
- viability, T/C [31]: 61.4%
- viability, T/C [32]: 53.8%
- viability, T/C [33]: 67.8%
- viability, T/C [34]: 42.4%
- viability, T/C [35]: 36.1%
- viability, T/C [36]: 16.4%

SMILES: Cn1nccc1Nc1nccc(-c2ccn(C(CO)c3ccc(Cl)c(F)c3)c(=O)c2)n1 (stereo not drawn) + COc1c(OCCCN2CCOCC2)ccc2c3n(c(=NC(=O)c4cnc(N)nc4)nc12)CCN3
- IC50 (second compound 0.00316 µM): > 10 µM
- IC50 (second compound 0.01 µM): > 10 µM
- IC50 (second compound 0.0316 µM): 2.78 µM
- IC50 (second compound 0.1 µM): 1.02 µM
- IC50 (second compound 0.316 µM): 0.612 µM
- IC50 (second compound 1 µM): 0.129 µM
- viability, T/C [1]: 88.1%
- viability, T/C [2]: 107%
- viability, T/C [3]: 95.3%
- viability, T/C [4]: 94.8%
- viability, T/C [5]: 77.2%
- viability, T/C [6]: 58.3%
- viability, T/C [7]: 88.5%
- viability, T/C [8]: 88.2%
- viability, T/C [9]: 88.4%
- viability, T/C [10]: 85.7%
- viability, T/C [11]: 70.6%
- viability, T/C [12]: 50.5%
- viability, T/C [13]: 92.5%
- viability, T/C [14]: 89.7%
- viability, T/C [15]: 80.2%
- viability, T/C [16]: 84.6%
- viability, T/C [17]: 45.6%
- viability, T/C [18]: 42.7%
- viability, T/C [19]: 78%
- viability, T/C [20]: 81%
- viability, T/C [21]: 64.3%
- viability, T/C [22]: 53.6%
- viability, T/C [23]: 24%
- viability, T/C [24]: 8.76%
- viability, T/C [25]: 74.7%
- viability, T/C [26]: 78.5%
- viability, T/C [27]: 58.8%
- viability, T/C [28]: 43.8%
- viability, T/C [29]: 7.08%
- viability, T/C [30]: 3.11%
- viability, T/C [31]: 54.9%
- viability, T/C [32]: 51.5%
- viability, T/C [33]: 42.6%
- viability, T/C [34]: 29.2%
- viability, T/C [35]: 10%
- viability, T/C [36]: 5.49%
